Read-outs that look alike come from different tables or passages of the source.
Legend:
[1] = tested on: Caenorhabditis elegans strain PE255; assay: In vivo C. elegans ATP status assay
[2] = tested on: Caenorhabditis elegans (Bristol N2); assay: C. elegans larval development and growth assay; conditions: for minimal effective concentration: Caenorhabditis elegans, read-out: LEC EXT: lowest effect concentration for extinction, a measure of nematode size
[3] = tested on: rat primary hepatocytes; assay: MMP assay in rat primary hepatocytes; conditions: for IC50: Rattus norvegicus, Hepatocyte, read-out: MMP assays IC50 (µM) Rat Hepatocytes; for MMP assays efficacy (%) Rat Hepatocytes: mean ± SD of three experiments
[4] = tested on: HepG2 cells; assay: cells; conditions: Homo sapiens; for IC50: HepG2, read-out: MMP assays IC50 (µM) HepG2; for Emax: HepG2, read-out: MMP assays efficacy (%) HepG2
[5] = tested on: isolated rat liver mitochondria; assay: Oxygen consumption, Clark-type oxygen electrode; assay type: biochemical; conditions: for I-ADP, % of control (O2 consumption rate): glutamate/malate driven state 3 respiration; for I-ADP, % of control (O2 consumption rate) / I-sub, % of control (O2 consumption rate) / II-ADP, % of control (O2 consumption rate) / II-sub, % of control (O2 consumption rate): isolated rat liver mitochondria; for I-sub, % of control (O2 consumption rate): glutamate/malate driven state 4 respiration; for II-ADP, % of control (O2 consumption rate): succinate-driven state 3 respiration; for II-sub, % of control (O2 consumption rate): succinate-driven state 4 respiration; for Potential Mechanism: mitochondrial respiration in isolated rat liver mitochondria, Clark type oxygen electrode, over tested concentrations
[6] = tested on: HepG2 cells; conditions: cited from earlier work; for IC50: read-out: MMP assays IC50 (µM) qHTS-HepG2

Structure (SMILES)	LUM: mean difference in luminescence (ATP content) relative to plate controls ([1]; 0.5 µM)	LUM: mean difference in luminescence (ATP content) relative to plate controls ([1]; 1 µM)	LUM: mean difference in luminescence (ATP content) relative to plate controls ([1]; 5 µM)	LUM: mean difference in luminescence (ATP content) relative to plate controls ([1]; 10 µM)	LUM: mean difference in luminescence (ATP content) relative to plate controls ([1]; 25 µM)	LUM: mean difference in luminescence (ATP content) relative to plate controls ([1]; 50 µM)	LUM: mean difference in luminescence (ATP content) relative to plate controls ([1]; 75 µM)	LUM: mean difference in luminescence (ATP content) relative to plate controls ([1]; 100 µM)	EXT: mean difference in nematode size relative to plate controls ([2]; 0.5 µM)	EXT: mean difference in nematode size relative to plate controls ([2]; 1 µM)	EXT: mean difference in nematode size relative to plate controls ([2]; 5 µM)	EXT: mean difference in nematode size relative to plate controls ([2]; 10 µM)	EXT: mean difference in nematode size relative to plate controls ([2]; 25 µM)	EXT: mean difference in nematode size relative to plate controls ([2]; 50 µM)	EXT: mean difference in nematode size relative to plate controls ([2]; 75 µM)	EXT: mean difference in nematode size relative to plate controls ([2]; 100 µM)	minimal effective concentration [2]	IC50 [3]	MMP assays efficacy (%) Rat Hepatocytes [3]	IC50 [4]	also measured
Cc1cc(Cc2cc(C)cc(C(C)(C)C)c2O)c(O)c(C(C)(C)C)c1	-0.1638	-0.2926	-0.4173	-0.05227	0.3804	0.9583	0.4391	0.9663	0.1192	0.1294	0.8511	1.077	1.41	2.096	2.103	2.175	5 µM	3.71 ± 0.47 µM	-125±63%	2 µM	minimal effective concentration ([1]; Caenorhabditis elegans, read-out: LEC LUM: lowest effect concentration for luminescence, a measure of nematode ATP content): 50 µM; Emax [4]: 97%; I-ADP, % of control (O2 consumption rate) ([5]; 20 µM): 103 (50.8) % of control; I-sub, % of control (O2 consumption rate) ([5]; 20 µM): 116 (18.6) % of control; II-ADP, % of control (O2 consumption rate) ([5]; 20 µM): 101 (78.4) % of control; II-sub, % of control (O2 consumption rate) ([5]; 20 µM): 103 (31.4) % of control; I-ADP, % of control (O2 consumption rate) ([5]; 100 µM): 100 (28.6) % of control; I-sub, % of control (O2 consumption rate) ([5]; 100 µM): 244 (29.2) % of control; II-ADP, % of control (O2 consumption rate) ([5]; 100 µM): 91 (33.1) % of control; II-sub, % of control (O2 consumption rate) ([5]; 100 µM): 184 (27.2) % of control; Potential Mechanism [5]: Uncoupler; MMP assays efficacy (%) qHTS-HepG2 [6]: -96±2%; IC50 [6]: 1.35 ± 0.26 µM
CCc1cc(Cc2cc(CC)cc(C(C)(C)C)c2O)c(O)c(C(C)(C)C)c1	-0.0103	-0.09559	-0.6519	-0.6136	-0.3378	-0.154	0.1094	0.04601	0.1174	0.117	0.5074	0.7525	0.8303	1.425	1.246	1.387	5 µM	5.01 ± 4.35 µM	-78±36%	2 µM	Emax [4]: 90%; I-ADP, % of control (O2 consumption rate) ([5]; 20 µM): 96 (47.4) % of control; I-sub, % of control (O2 consumption rate) ([5]; 20 µM): 105 (16.9) % of control; II-ADP, % of control (O2 consumption rate) ([5]; 20 µM): 100 (77.8) % of control; II-sub, % of control (O2 consumption rate) ([5]; 20 µM): 97 (29.7) % of control; I-ADP, % of control (O2 consumption rate) ([5]; 100 µM): 121 (34.8) % of control; I-sub, % of control (O2 consumption rate) ([5]; 100 µM): 175 (20.9) % of control; II-ADP, % of control (O2 consumption rate) ([5]; 100 µM): 98 (35.6) % of control; II-sub, % of control (O2 consumption rate) ([5]; 100 µM): 134 (19.8) % of control; Potential Mechanism [5]: Uncoupler; MMP assays efficacy (%) qHTS-HepG2 [6]: -111±18%; IC50 [6]: 1.22 ± 0.73 µM

Source: article PMC6112376, “Comprehensive Analyses and Prioritization of Tox21 10K Chemicals Affecting Mitochondrial Function by in-Depth Mechanistic Studies” (Environmental Health Perspectives, 2018)
